# Laboratory results published in US20210309658A1, “ARYL COMPOUNDS FOR THE TREATMENT AND PROPHYLAXIS OF BACTERIAL INFECTION” (Hoffmann-La Roche Inc., priority 2018, published 2021).
# What was measured:
# [1] = Lyophilisation Solubility Assay (LYSA); type: physicochemical; conditions: aqueous buffer, thermodynamic from solid; 0.05 M phosphate buffer, pH 6.5; * = detection limit
# Experimental: The solubility of compounds of present invention was assessed by LYSA assay. Samples were prepared in duplicate from 10 mM DMSO stock solutions (20 μL) diluted in 30 μL pure DMSO. After evaporation of DMSO with a centrifugal vacuum evaporator, the residue was dissolved in 0.05 M phosphate buffer (150 μL, pH 6.5), stirred for one hour and shook for two hours. After one night, the solution was filtered using a microtiter filter plate. Then the filtrate and its 1/10 dilution were analyzed by HPLC-UV. In addition a four-point calibration curve was prepared from the 10 mM stock solutions and used for the solubility determination of the compounds.
# [2] = Cytotoxicity assay (HepG2, CellTiter-Blue); type: cell-based; conditions: human; HepG2 cells, 3 days treatment; * = detection limit
# Experimental: The cytotoxicity of compounds of present invention was assessed by HepG2 assay. HepG2 cells (ATCC HB-8065™) were seeded into 96-well plates (1.2×10^4 cells per well) and treated with compounds for 3 days, cell viability was measured at day 3 post compound treatment using the CellTiter-Blue® Cell Viability Assay (Promega, Cat. No. G8082). 20 μL of Cell titer blue buffer were added to each well of the cells, incubated for 3 hours at 37° C., and the fluorescence value was measured by a plate reader (Molecular Device SpectraMax M2). The CC50 value of each compound is plotted with GraphPad Prism using four parameter logistic equation.
# [3] = system: K. pneumoniae (ATCC10031); assay: 50% growth inhibitory concentration (IC50) determination assay, K. pneumoniae; type: cell-based; conditions: Klebsiella pneumoniae, ATCC10031; growth inhibition, Iso-Sensitest broth, OD 600 nm over 16 h; * = detection limit; read-out: IC50 (μM) K. pneumoniae ATCC10031
# Experimental: (§1) The in vitro antimicrobial activity of the compounds against E. coli (BW25113, obtained from Coli Genetic Stock Center, #7636) and K. pneumoniae (ATCC10031) was determined according to the following procedure:
# (§2) The assay used a 10-points Iso-Sensitest broth medium to measure quantitatively the in vitro activity of the compounds against E. coli BW25113 and K. pneumoniae ATCC 10031.
# (§3) Stock compounds in DMSO were serially two-fold diluted (range from 50 to 0.097 μM final concentration) in 384 wells microtiter plates and inoculated with 49 μL the bacterial suspension in Iso-Sensitest broth medium to have a final cell concentration of ˜5×10^5 CFU/mL in a final volume/well of 50 μL/well. Microtiter plates were incubated at 35±2° C.
# (§4) Bacterial cell growth was determined with the measurement of optical density at λ=600 nm each 20 minutes over a time course of 16 h.
# (§5) Growth inhibition was calculated during the logarithmic growth of the bacterial cells with determination of the concentration inhibiting 50% (IC50) of the growth.
# E. coli (ATCC 25922) = assay: Minimal Inhibitory Concentration (MIC) assay; type: cell-based; conditions: Escherichia coli, ATCC25922; CAMHB, 20 hours at 35° C.; read-out: MIC (μg/mL) E. coli ATCC 25922
# Experimental: The in vitro potency of compounds to inhibit E. coli (ATCC 25922) growth was assessed by MIC (Minimal Inhibitory Concentration) assay. Samples were prepared from 10 mM DMSO stock solutions. After serial 2-fold dilution in DMSO in a master plate (Greiner, Cat No: 651201), 180 μL sterile distilled water was added to 20 μL each aliquot of the samples. Then 10 μL diluted compounds were transferred into a new assay plate (Costar, 3599).
# The growth medium […] Mueller Hinton Broth (CAMHB) was prepared by adding the 20 mg per liter CaCl2 and 20 mg per liter MgCl2 into the MHB medium (Jianglai Company, sterilized).
# Vials of each of the test microorganisms were maintained frozen in the vapor phase of a liquid nitrogen freezer. Took out the bacteria E. coli ATCC 25922 (KWIKSTIK, 0335K) from liquid nitrogen freezer, thawed it in room temperature, and diluted the bacterial in the CAMHB medium to achieve a final inoculum of 5×10^5 CFU/mL, 90 μL CAMHB with bacteria was dispensed to the assay plate and pipetted 5 times.
# Then the assay plates were incubated for 20 hours at 35° C. in ambient air. Following incubation, the MIC (μg/mL), the lowest concentration of drug that inhibits visible growth of the microorganism was read and recorded throw the microscope.
# E. coli (BW25113) = assay: 50% growth inhibitory concentration (IC50) determination assay, E. coli; type: cell-based; conditions: Escherichia coli, BW25113; growth inhibition, Iso-Sensitest broth, OD 600 nm over 16 h; read-out: IC50 (μM) E. coli K12 BW25113
# Experimental: as §1, §2, §3, §4, §5
structure (smiles),measurement,setting,value
"CCNc1cc(F)cc2c1[nH]c1ncc(-c3cnc(NC4CCNCC4)nc3)c(-n3ccc(C(F)(F)F)n3)c12 [Example 1.10, N-Ethyl-6-fluoro-3-[2-(4-piperidylamino)pyrimidin-5-yl]-4-[3-(trifluoromethyl)pyrazol-1-yl]-9H-pyrido[2,3-b]indol-8-amine]",solubility thermodynamic,[1],7.6 µg/mL
"CCNc1cc(F)cc2c1[nH]c1ncc(-c3cnc(NC4CCNC4)nc3)c(-n3ccc(C(F)(F)F)n3)c12 (stereo not shown) [Example 1.24, N-Ethyl-6-fluoro-3-[2-(pyrrolidin-3-ylamino)pyrimidin-5-yl]-4-[3-(trifluoromethyl)pyrazol-1-yl]-9H-pyrido[2,3-b]indol-8-amine]",CC50 at 3 days,[2],11800 nM
same,solubility thermodynamic,[1],8.3 µg/mL
"CCNc1cc(F)cc2c1[nH]c1ncc(-c3cncc(C#N)c3)c(-n3cc(CN)c(C(F)(F)F)n3)c12 [Example 1.26, 5-[4-[4-(Aminomethyl)-3-(trifluoromethyl)pyrazol-1-yl]-8-(ethylamino)-6-fluoro-9H-pyrido[2,3-b]indol-3-yl]pyridine-3-carbonitrile]",IC50,[3],≤ 0.098 µM
same,MIC,E. coli (ATCC 25922),0.618 µg/mL
same,IC50,E. coli (BW25113),0.374 µM
same,solubility thermodynamic,[1],32.5 µg/mL
"CCNc1cc(F)cc2c1[nH]c1ncc(-c3cnc(OC)nc3)c(-n3nc(C#N)c4c3CNCC4)c12 [Example 1.39, 1-[8-(Ethylamino)-6-fluoro-3-(2-methoxypyrimidin-5-yl)-9H-pyrido[2,3-b]indol-4-yl]-4,5,6,7-tetrahydropyrazolo[3,4-c]pyridine-3-carbonitrile]",CC50 at 3 days,[2],49000 nM
same,IC50,[3],≤ 0.098 µM
same,IC50,E. coli (BW25113),2.37 µM
same,solubility thermodynamic,[1],42 µg/mL
"CCNc1cc(F)cc2c1[nH]c1ncc(-c3cncc(CN)c3)c(-n3ccc(C(F)(F)F)n3)c12 [Example 1.45, 3-[5-(Aminomethyl)-3-pyridyl]-N-ethyl-6-fluoro-4-[3-(trifluoromethyl)pyrazol-1-yl]-9H-pyrido[2,3-b]indol-8-amine]",IC50,[3],≤ 0.098 µM
same,IC50,E. coli (BW25113),2.04 µM
same,solubility thermodynamic,[1],16 µg/mL
"CCNc1cc(F)cc2c1[nH]c1ncc(-c3cnc(CN)nc3)c(-n3ccc(C(F)(F)F)n3)c12 [Example 1.46, 3-[2-(Aminomethyl)pyrimidin-5-yl]-N-ethyl-6-fluoro-4-[3-(trifluoromethyl)pyrazol-1-yl]-9H-pyrido[2,3-b]indol-8-amine]",CC50 at 3 days,[2],27400 nM
same,IC50,[3],≤ 0.098 µM
same,IC50,E. coli (BW25113),0.77 µM
same,solubility thermodynamic,[1],23 µg/mL
"CNc1c(F)c(F)cc2c1[nH]c1ncc(-c3cncc(C#N)c3)c(-n3cc(CN)c(C(F)(F)F)n3)c12 [Example 1.49, 5-[4-[4-(Aminomethyl)-3-(trifluoromethyl)pyrazol-1-yl]-6,7-difluoro-8-(methylamino)-9H-pyrido[2,3-b]indol-3-yl]pyridine-3-carbonitrile]",CC50 at 3 days,[2],12800 nM
same,IC50,[3],0.098 µM
same,MIC,E. coli (ATCC 25922),0.359 µg/mL
same,IC50,E. coli (BW25113),0.698 µM
same,solubility thermodynamic,[1],14 µg/mL
"CCNc1cc(F)cc2c1[nH]c1ncc(-c3cnc(OC4CCNCC4)nc3)c(-n3ccc(C(F)(F)F)n3)c12 [Example 1.53, N-ethyl-6-fluoro-3-[2-(4-piperidyloxy)pyrimidin-5-yl]-4-[3-(trifluoromethyl)pyrazol-1-yl]-9H-pyrido[2,3-b]indol-8-amine]",IC50,[3],0.121 µM
same,IC50,E. coli (BW25113),1.29 µM
same,solubility thermodynamic,[1],21 µg/mL
"CCNc1cc(F)cc2c1[nH]c1ncc(-c3cnc(C4(C(=O)O)CC4)nc3)c(-n3ccc(C(F)(F)F)n3)c12 [Example 2.01, 1-[5-[8-(Ethylamino)-6-fluoro-4-[3-(trifluoromethyl)pyrazol-1-yl]-9H-pyrido[2,3-b]indol-3-yl]pyrimidin-2-yl]cyclopropanecarboxylic Acid]",CC50 at 3 days,[2],38600 nM
same,solubility thermodynamic,[1],67 µg/mL
"CNc1cc(F)cc2c1[nH]c1ncc(-c3cnc(C4(C(=O)O)CC4)nc3)c(-n3ccc(C(F)(F)F)n3)c12 [Example 2.02, 1-[5-[6-Fluoro-8-(methylamino)-4-[3-(trifluoromethyl)pyrazol-1-yl]-9H-pyrido[2,3-b]indol-3-yl]pyrimidin-2-yl]cyclopropanecarboxylic acid]",CC50 at 3 days,[2],62600 nM
same,IC50,[3],0.254 µM
same,IC50,E. coli (BW25113),1.67 µM
same,solubility thermodynamic,[1],148 µg/mL
"CCNc1cc(F)cc2c1[nH]c1ncc(-c3cnc(NCC(C)(C)C(=O)O)nc3)c(-n3ccc(C(F)(F)F)n3)c12 [Example 2.05, 3-[[5-[8-(Ethylamino)-6-fluoro-4-[3-(trifluoromethyl)pyrazol-1-yl]-9H-pyrido[2,3-b]indol-3-yl]pyrimidin-2-yl]amino]-2,2-dimethyl-propanoic acid]",CC50 at 3 days,[2],27600 nM
same,solubility thermodynamic,[1],24 µg/mL
"CCNc1cc(F)cc2c1[nH]c1ncc(-c3cncc(Cc4n[nH]c(=O)o4)c3)c(-n3ccc(C(F)(F)F)n3)c12 [Example 6.01, 5-[[5-[8-(ethylamino)-6-fluoro-4-[3-(trifluoromethyl)pyrazol-1-yl]-9H-pyrido[2,3-b]indol-3-yl]-3-pyridyl]methyl]-3H-1,3,4-oxadiazol-2-one]",CC50 at 3 days,[2],11400 nM
same,IC50,[3],0.441 µM
same,MIC,E. coli (ATCC 25922),0.731 µg/mL
same,IC50,E. coli (BW25113),0.827 µM
"CNc1cc(F)cc2c1[nH]c1nc(Oc3cnc(C)nc3)nc(N3C[C@H]4C[C@@H]3C[C@H]4N)c12 [GP-6, reference compound]",CC50 at 3 days,[2],5600 nM
same,IC50,[3],≤ 0.098 µM
same,MIC,E. coli (ATCC 25922),0.127 µg/mL
same,IC50,E. coli (BW25113),0.17 µM
same,solubility thermodynamic,[1],< 1 µg/mL
